Assays:
[1] = tested on: Leishmania amazonensis; test: Antileishmanial activity against Leishmania amazonensis WHOM/BR/75/JOSEFA promastigotes after 72 hrs by Neubauer chamber method; type: functional
[2] = Cytotoxicity against mouse L929 cells assessed as decrease in cell viability after 48 hrs by MTT method; type: toxicity
[3] = Selectivity index, ratio of CC50 for mouse J774A1 cells to IC50 for Leishmania amazonensis WHOM/BR/75/JOSEFA axenic amastigotes; type: functional, J774.A1
[4] = Cytotoxicity against mouse J774A1 cells assessed as decrease in cell viability after 48 hrs by MTT method; type: toxicity, J774.A1
[5] = Selectivity index, ratio of CC50 for mouse J774A1 cells to IC50 for Leishmania amazonensis WHOM/BR/75/JOSEFA promastigotes; type: functional, J774.A1
[6] = Selectivity index, ratio of CC50 for mouse L929 cells to IC50 for Leishmania amazonensis WHOM/BR/75/JOSEFA promastigotes; type: functional
[7] = Selectivity index, ratio of CC50 for mouse L929 cells to IC50 for Leishmania amazonensis WHOM/BR/75/JOSEFA axenic amastigotes; type: functional
[8] = tested on: Leishmania amazonensis; test: Antileishmanial activity against Leishmania amazonensis WHOM/BR/75/JOSEFA axenic amastigotes after 72 hrs by Neubauer chamber method; type: functional

SMILES | IC50 [1] [µM] | other results
NNC(=O)c1n[nH]c(=O)c2c1cnn2-c1ccccc1 | > 100 | 
O=C(N/N=C/c1cccs1)c1nn(-c2ccccc2)c(=O)c2c1cnn2-c1ccc(Cl)cc1 | > 100 | 
NNC(=O)c1n[nH]c(=O)c2c1cnn2-c1ccc(Cl)cc1 | > 100 | 
O=C(N/N=C/c1ccc(-c2cccs2)s1)c1n[nH]c(=O)c2c1cnn2-c1ccc(Cl)cc1 | > 100 | 
O=C(N/N=C/c1ccc(-c2cccs2)s1)c1n[nH]c(=O)c2[nH]ncc12 | > 100 | 
O=C(N/N=C/c1ccc(-c2cccs2)s1)c1nn(-c2ccccc2)c(=O)c2c1cnn2-c1ccc(Cl)cc1 | > 100 | 
O=C(N/N=C/c1cccs1)c1n[nH]c(=O)c2c1cnn2-c1ccc(Cl)cc1 | > 100 | 
NNC(=O)c1n[nH]c(=O)c2[nH]ncc12 | > 100 | 
O=C(N/N=C/c1ccc(-c2cccs2)s1)c1nn(-c2ccc(Cl)cc2)c(=O)c2c1cnn2-c1ccccc1 | > 100 | 
NNC(=O)c1nn(-c2ccccc2)c(=O)c2c1cnn2-c1ccccc1 | > 100 | 
O=C(N/N=C/c1ccc(-c2cccs2)s1)c1nn(-c2ccc(Cl)cc2)c(=O)c2c1cnn2-c1ccc(Cl)cc1 | > 100 | 

Continued, in another order:

IC50 [1] [µM] | SMILES | other results
> 100 | O=C(N/N=C/c1cccs1)c1n[nH]c(=O)c2c1cnn2-c1ccccc1 | 
> 100 | O=C(N/N=C/c1cccs1)c1nn(-c2ccc(Cl)cc2)c(=O)c2c1cnn2-c1ccccc1 | 
> 100 | NNC(=O)c1nn(-c2ccc(Cl)cc2)c(=O)c2c1cnn2-c1ccc(Cl)cc1 | 
> 100 | CN(/N=C/c1ccc(-c2cccs2)s1)C(=O)c1nn(-c2ccccc2)c(=O)c2c1cnn2-c1ccccc1 | 
> 100 | NNC(=O)c1nn(-c2ccc(Cl)cc2)c(=O)c2c1cnn2-c1ccccc1 | 
> 100 | NNC(=O)c1nn(-c2ccccc2)c(=O)c2c1cnn2-c1ccc(Cl)cc1 | 
> 100 | O=C(N/N=C/c1cccs1)c1n[nH]c(=O)c2[nH]ncc12 | 
> 100 | O=C(N/N=C/c1cccs1)c1nn(-c2ccc(Cl)cc2)c(=O)c2c1cnn2-c1ccc(Cl)cc1 | 
3.63 | O=C(N/N=C/c1ccc(-c2cccs2)s1)c1nn(-c2ccccc2)c(=O)c2c1cnn2-c1ccccc1 | CC50 at 48 h [2]: 77.4 µM; Ratio CC50/IC50 [3]: >82.48; CC50 at 48 h [4]: > 191 µM; Ratio CC50/IC50 [5]: >52.71; Ratio CC50/IC50 [6]: 21.33; Ratio CC50/IC50 [7]: 33.38; IC50 [8]: 2.32 µM
85 | O=C(N/N=C/c1cccs1)c1nn(-c2ccccc2)c(=O)c2c1cnn2-c1ccccc1 | CC50 at 48 h [2]: 186 µM; Ratio CC50/IC50 [3]: 3.25; CC50 at 48 h [4]: 106 µM; Ratio CC50/IC50 [5]: 1.25; Ratio CC50/IC50 [6]: 2.19; Ratio CC50/IC50 [7]: 5.68; IC50 [8]: 32.7 µM
10.8 | O=C(N/N=C/c1ccc(-c2cccs2)s1)c1n[nH]c(=O)c2c1cnn2-c1ccccc1 | CC50 at 48 h [2]: < 1 µM; CC50 at 48 h [4]: 114 µM; Ratio CC50/IC50 [5]: 10.6; IC50 [8]: > 100 µM
0.64 | C[C@@H]1[C@H](O)[C@@H](C)/C=C/C=C/C=C/C=C/C=C/C=C/C=C/[C@H](O[C@@H]2O[C@H](C)[C@@H](O)[C@H](N)[C@@H]2O)C[C@@H]2O[C@](O)(C[C@@H](O)C[C@@H](O)[C@H](O)CC[C@@H](O)C[C@@H](O)CC(=O)O[C@H]1C)C[C@H](O)[C@H]2C(=O)O [AMPHOTERICIN B] | CC50 at 48 h [2]: 79.1 µM; CC50 at 48 h [4]: 16.8 µM; Ratio CC50/IC50 [5]: 26.25; Ratio CC50/IC50 [6]: 123.64

From ChEMBL document CHEMBL3875152, “Synthesis and evaluation against Leishmania amazonensis of novel pyrazolo[3,4-d]pyridazinone-N-acylhydrazone-(bi)thiophene hybrids” (Eur J Med Chem, 2016)
